Measurements as given in patent US5294713A, “2-piperazinone compounds and their use” (Takeda Chemical Industries, Ltd., priority 1991, dated 1994).

Assays:
[1] = system: human platelet aggregation; test: Inhibitory action on human platelet aggregation (ADP-stimulated PRP); assay type: cell-based; conditions: ADP final concentration 3 μM, in vitro, read-out: Inhibitory effect on platelet aggregation in vitro (IC50) man
Procedure: [II] Inhibitory action on human platelet aggregation
Human blood was collected in 3.8% sodium citrate (1 ml for 9 ml of blood) by venipuncture from healthy male volunteers. The blood was centrifuged at 1000 g for 3 to 5 seconds at room temperature to obtain platelet rich plasma (PRP). The PRP was further centrifuged at 1000 g for 10 minutes to obtain platelet poor plasma (PPP). The number of platelets was measured using an automatic blood cell counter (Sysmex E2500, Toaiyou-densi). The platelet density of PRP was adjusted to 300,000/μl with PPP. Platelet aggregation was measured using an 8-channel aggregometer (NBS HEMA TRACER VI Niko Bioscience Inc.). The PRP (250 μl) was preincubated at 37° C. for 2 minutes. and then incubated for 2 minutes. with 25 μl of physiological saline or various concentrations of test drugs followed by stimulation with ADP (final concentration: 3 μM). By comparing the maximum aggregation rates of the control and those of test drugs, the inhibitory rates were determined. The results are shown in [Table 1]-[Table 3].

GPIIb/IIIa = target: T1, GPIIb/IIIa (Homo sapiens, UniProt P05106+P08514); test: Inhibition of fibrinogen binding to GPIIb/IIIa; conditions: purified GPIIb/IIIa from HEL cells, biotinylated human fibrinogen 1 nM
T1 construct: Purification of GPIIb/IIIa from HEL Cells; endogenous in cells; host or cells: HEL cells (HEL 92.1.7; ATCC TIB180), human erythroleukemia; GPIIb/IIIa solubilized in Triton X-100, purified and adsorbed on microtiter plates
T1 sequence (P08514 32-887 limits assumed): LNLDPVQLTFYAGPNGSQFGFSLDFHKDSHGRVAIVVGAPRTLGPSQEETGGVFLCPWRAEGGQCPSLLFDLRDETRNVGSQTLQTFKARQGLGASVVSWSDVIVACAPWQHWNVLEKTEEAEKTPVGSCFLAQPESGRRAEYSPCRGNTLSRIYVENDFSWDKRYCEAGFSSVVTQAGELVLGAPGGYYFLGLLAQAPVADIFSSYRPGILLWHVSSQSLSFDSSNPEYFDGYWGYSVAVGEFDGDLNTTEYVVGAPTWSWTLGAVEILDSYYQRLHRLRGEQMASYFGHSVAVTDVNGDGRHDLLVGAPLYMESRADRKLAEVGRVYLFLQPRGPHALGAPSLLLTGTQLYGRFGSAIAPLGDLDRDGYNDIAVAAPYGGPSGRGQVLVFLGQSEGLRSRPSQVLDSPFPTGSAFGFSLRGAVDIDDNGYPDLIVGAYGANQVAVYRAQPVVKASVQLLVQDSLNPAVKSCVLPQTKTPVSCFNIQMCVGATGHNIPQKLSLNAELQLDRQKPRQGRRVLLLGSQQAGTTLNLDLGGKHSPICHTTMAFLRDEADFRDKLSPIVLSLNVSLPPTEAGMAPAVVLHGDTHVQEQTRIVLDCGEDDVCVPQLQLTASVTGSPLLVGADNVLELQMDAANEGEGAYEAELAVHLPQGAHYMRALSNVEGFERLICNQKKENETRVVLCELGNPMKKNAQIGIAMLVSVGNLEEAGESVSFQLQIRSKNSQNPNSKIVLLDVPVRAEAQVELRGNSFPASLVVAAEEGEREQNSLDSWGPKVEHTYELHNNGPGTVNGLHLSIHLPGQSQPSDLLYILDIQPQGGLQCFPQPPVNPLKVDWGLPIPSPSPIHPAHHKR
T1 sequence (P08514 891-1039 limits assumed): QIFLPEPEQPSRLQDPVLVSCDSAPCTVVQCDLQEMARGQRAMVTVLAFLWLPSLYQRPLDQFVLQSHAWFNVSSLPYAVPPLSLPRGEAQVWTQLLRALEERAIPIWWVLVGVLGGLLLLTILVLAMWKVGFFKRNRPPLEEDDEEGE
T1 sequence (P05106 27-788): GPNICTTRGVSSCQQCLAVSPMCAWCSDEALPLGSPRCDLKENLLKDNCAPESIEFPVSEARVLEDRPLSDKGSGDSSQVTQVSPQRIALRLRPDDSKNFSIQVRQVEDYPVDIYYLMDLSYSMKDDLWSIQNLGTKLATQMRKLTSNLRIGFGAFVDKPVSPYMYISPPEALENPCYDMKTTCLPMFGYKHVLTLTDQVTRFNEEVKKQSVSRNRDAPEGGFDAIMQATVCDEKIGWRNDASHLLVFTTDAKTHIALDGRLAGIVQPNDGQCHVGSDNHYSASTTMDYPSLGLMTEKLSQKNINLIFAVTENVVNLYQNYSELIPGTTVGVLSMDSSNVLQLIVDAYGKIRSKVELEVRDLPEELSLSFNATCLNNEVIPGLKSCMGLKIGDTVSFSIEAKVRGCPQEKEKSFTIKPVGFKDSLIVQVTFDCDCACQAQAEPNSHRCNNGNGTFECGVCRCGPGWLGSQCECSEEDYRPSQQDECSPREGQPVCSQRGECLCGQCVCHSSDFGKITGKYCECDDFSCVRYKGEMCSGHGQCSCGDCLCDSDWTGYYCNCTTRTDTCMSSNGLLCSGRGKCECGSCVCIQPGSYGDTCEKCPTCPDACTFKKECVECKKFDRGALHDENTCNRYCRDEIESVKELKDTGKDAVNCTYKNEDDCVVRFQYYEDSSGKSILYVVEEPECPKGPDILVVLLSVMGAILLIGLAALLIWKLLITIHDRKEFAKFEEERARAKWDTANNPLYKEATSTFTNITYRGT
Procedure: (1) Cultibation of Cells Derived from Human Erythroleukemia (Hereinafter Referred to as HEL Cells)
HEL cells (HEL 92. 1. 7; ATCC No. TIB180) were purchased from ATCC (Rockville, Md., U.S.A.). The cells were grown in RPMI medium containing 40 mM N-2-hydroxyethylpiperazin-N'-2-ethanesulfonic acid (hereinafter referred to as HEPES) (pH 7.0), 100 μg/ml of Kanamycin and 10% FCS (GIBCO Laboratories, Grand Island, N.Y., U.S.A.). Cultivation was conducted at 37° C in the presence of 5% CO2.
(2) Purification of GPIIb/IIIa from HEL Cells
Purification of GPIIb/IIIa was performed using the following modification of the method of L. A. Fitzgerald et al. [J. Biol. Chem., 262, 3936 (1987)]. The purification was conducted at room temperature unless specifically mentioned. From 7 L of the culture broth on 7th day of the cultibation (floating cells), the cells were collected by centrifugation (1,000×g, 10 minutes, 4° C.), which were washed with 20 mM Tris-HCl(pH 7.5) containing 1 mM EDTA and 150 mM NaCl. The cells were suspended in 80 ml of a solubilized buffer [20 mM Tris-HCl, 150 mM NaCl, 1% Triton X-100, 1 mM MgCl2, 1 mM CaCl2, 0.1 mM (p-amidinophenyl)methanesulfonyl fluoride (hereinafter referred to as APMSF), 10 nM leupeptin, 0.02% NaN3, pH 7.4)].
The cell suspension was gently mixed for 30 minutes at 4° C. to solubilize GPIIb/IIIa. The suspension was subjected to centrigugation (100,000×g, one hour) at 4° C. to remove cell debris to obtain a cell-extraction solution (60 ml). […] The fraction which passed through the column was charged on the ConA-Sepharose column (Pharmacia LKB, .phi. 1.0×15 cm, 20 ml/hr) to allow GPIIb/IIIa to be adsorbed thereon, then GPIIb/IIIa was eluted with column buffer solution containing 0.5 M methyl α-D-mannopyranoside. The eluate thus obtained was allowed to pass through the DEAE-Toyopearl 650 M column (Tosoh, .phi. 1.6×10.5 cm, 20 ml/hr) equilibrated with the same column buffer to remove contaminating proteins.
(3) Biotinylation of Human Fibrinogen
Biotinylation of human fibrinogen was performed by the following procedure [I. F. Charo et al., J. Biol. Chem., 266, 1415 (1991)]. Human fibrinogen (Kabi Vitrum AB, Stockholm, Sweden) was dissolved in PBS so as to make its concentration 5 mg/ml. The solution was dialyzed overnight at 4° C. against 1 L of 0.1 M NaHCO3 -0.1 M NaCl (pH 8.2). Insolubles were then removed by centrifugation (100,000×g, 30 minutes), and the solution was diluted with the same buffer to the protein concentration of 1 mg/ml. To thus-diluted solution was added powdery sulfo-N-hydroxysuccinimidobiotin (Pierce Chemical Co., Rockford, Ill., U.S.A.) so as to make its final concentration 0.2 mg/ml and gently mixed to perform biotinylate fibrinogen. The resultant was subjected to dialysis against 50 mM Tris-HCl (pH 7.4) - 100 mM NaCl-0.05% NaN3. The dialysate was distributed and stored at 4° C.
(4) Inhibition Assay for Fibrinogen Binding to GPIIb/IIIa
This experiment was performed using a modification of the method described in the above-mentioned I. F. Charo et al. report. The purified GPIIb/IIIa was diluted with the buffer A (20 mM Tris-HCl, 150 mM NaCl, 1 mM CaCl2, 0.02% NaN3, pH 7.4) to a concentration of 1 μg/ml. The diluted solution was added to 96-well microtiter plates (MaxiSorp; Nunc, Denmark) at 100 μl per well, which were left standing at 4° C. overnight to allow GPIIb/IIIa to be adsorbed on the microplates. The plate was aspirated, and then 150 μl of the buffer B (35 mg/ml BSA, 50 mM Tris-HCl, 100 mM NaCl, 2 mM CaCl2, 0.02%, NaN3, pH 7.4) was added to the plate, and blocking was performed at 30° C. for 2 hours. The plate was washed twice with 250 μl each of the buffer C (1 mg/ml BSA, 50mM Tris-HCl, 100 mM NaCl, 2 mM CaCl2, pH 7.4).

[2] = system: guinea pig platelet aggregation; test: Inhibitory action on guinea pig platelet aggregation (ADP-stimulated PRP); assay type: cell-based; conditions: Cavia porcellus, ADP final concentration 1 μM, in vitro, read-out: Inhibitory effect on platelet aggregation in vitro (IC50) guinea pig
Procedure: TEST EXAMPLE 1 [I] Inhibitory action on guinea pig platelet aggregation
Blood was collected in 3.15% sodium citrate (1 ml for 9 ml of blood) by cardiac puncture from male guinea pig. The blood was centrifuged at 1000 g for 3 to 5 seconds at room temperature to obtain platelet rich plasma (PRP). The PRP was further centrifuged at 1000 g for 10 minutes to obtain platelet poor plasma (PPP). The number of platelets was measured using an automatic blood cell counter (Sysmex E2500, Toaiyou-densi). The platelet density of PRP was adjusted to 400,000/μl with PPP. Platelet aggregation was measured using an 8-channel aggregometer (NBS HEMA TRACER VI Niko Bioscience Inc.). The PRP (250 μl ) was preincubated at 37° C. for 2 minutes. and then incubated for 2 minutes. with 25 μl of physiological saline or various concentrations of test drugs followed by stimulation with ADP (final concentration: 1 μM). By comparing the maximum aggregation rates of the control and those of test drugs, the inhibitory rates were determined. The results are shown in [Table 1]-[Table 3].

Row | SMILES | IC50 [1] [nM] | IC50 (GPIIb/IIIa) [nM] | IC50 [2] [nM]
1 | N=C(N)NC[C@H]1CC[C@H](C(=O)NCC(=O)N2CCN(CC(=O)O)C(=O)[C@@H]2CC(=O)O)CC1 [compound 5] | 1100 | 20 | 3800
2 | N=C(N)NCCCCC(=O)NCC(=O)N1CCN(CC(=O)O)C(=O)[C@@H]1CC(=O)O [compound 6] | – | 46 | –
3 | N=C(N)NCc1ccc(C(=O)NCC(=O)N2CCN(CC(=O)O)C(=O)[C@@H]2CC(=O)O)cc1 [compound 8] | 660 | 18 | 1300
4 | N=C(N)NCc1cccc(C(=O)NCC(=O)N2CCN(CC(=O)O)C(=O)[C@@H]2CC(=O)O)c1 [compound 9] | – | 73 | –
5 | N=C(N)Nc1ccc(C(=O)NCC(=O)N2CCN(CC(=O)O)C(=O)[C@@H]2CC(=O)O)cc1 [compound 10] | 260 | 4.8 | 340
6 | CN(CC(=O)N1CCN(CC(=O)O)C(=O)[C@@H]1CC(=O)O)C(=O)[C@H]1CC[C@H](CNC(=N)N)CC1 [compound 12] | 700 | 10 | 1100
7 | N=C(N)NC[C@H]1CC[C@H](C(=O)NCC(=O)N2CCN(CC(=O)O)C(=O)[C@@H]2Cc2ccccc2)CC1 [compound 16] | 990 | 32 | 4600
8 | N=C(N)NC[C@H]1CC[C@H](C(=O)NCC(=O)N2CCN(CC(=O)O)C(=O)[C@@H]2CC(N)=O)CC1 [compound 22] | 720 | 23 | 4400
9 | N=C(N)NC[C@H]1CC[C@H](C(=O)NCC(=O)N2CCN(CC(=O)O)C(=O)[C@@H]2CCC(=O)O)CC1 [compound 32] | 960 | 15 | 3100
10 | N=C(N)NC[C@H]1CC[C@H](C(=O)NCC(=O)N2CCN(CC(=O)O)C(=O)C2)CC1 [compound 35] | 1100 | – | 5200
11 | N=C(N)NC[C@H]1CC[C@H](C(=O)N[C@@H](Cc2ccccc2)C(=O)N2CCN(CC(=O)O)C(=O)C2)CC1 [compound 37] | 520 | 7.9 | 7000
12 | N=C(N)N1CCC(C(=O)NCC(=O)N2CCN(CC(=O)O)C(=O)[C@@H]2CC(=O)O)CC1 [compound 38] | 1600 | 21 | 9600
13 | N=C(N)c1ccc(C(=O)NCC(=O)N2CCN(CC(=O)O)C(=O)[C@@H]2CC(=O)O)cc1 [compound 39] | 110 | 1 | 165
14 | N=C(N)c1ccc(CC(=O)NCC(=O)N2CCN(CC(=O)O)C(=O)[C@@H]2CC(=O)O)cc1 [compound 45] | 1500 | 8.1 | 1600
15 | NCCc1ccc(C(=O)NCC(=O)N2CCN(CC(=O)O)C(=O)[C@@H]2CC(=O)O)cc1 [compound 46] | 230 | 2.5 | 130
16 | NCc1ccc(C(=O)NCC(=O)N2CCN(CC(=O)O)C(=O)[C@@H]2CC(=O)O)cc1 [compound 47] | 4200 | – | –
17 | NCCCc1ccc(C(=O)NCC(=O)N2CCN(CC(=O)O)C(=O)[C@@H]2CC(=O)O)cc1 [compound 48] | – | 15 | –
18 | N=C(N)Nc1ccc(C(=O)N2CCC[C@H]2C(=O)N2CCN(CC(=O)O)C(=O)[C@@H]2CC(=O)O)cc1 [compound 50] | – | 21 | 345
19 | CN(CC(=O)N1CCN(CC(=O)O)C(=O)[C@@H]1CC(=O)O)C(=O)c1ccc(NC(=N)N)cc1 [compound 51] | 460 | – | 370
20 | N=C(N)c1ccc(C(=O)NCC(=O)N2CCN([C@@H](Cc3ccccc3)C(=O)O)C(=O)[C@@H]2CC(=O)O)cc1 [compound 54] | 660 | 6.1 | 4100
21 | N=C(N)c1ccc(C(=O)NCC(=O)N2CCN(CC(=O)O)C(=O)C2)cc1 [compound 55] | 94 | 0.42 | 210
22 | COC(=O)CN1CCN(C(=O)CNC(=O)c2ccc(C(=N)N)cc2)[C@@H](CC(=O)O)C1=O [compound 57] | 2600 | 20 | 1750
23 | COC(=O)C[C@H]1C(=O)N(CC(=O)O)CCN1C(=O)CNC(=O)c1ccc(C(=N)N)cc1 [compound 59] | 48 | 0.49 | 56
24 | COC(=O)C[C@H]1C(=O)N(CC(=O)O)CCN1C(=O)CNC(=O)c1ccc(CCN)cc1 [compound 60] | 93 | 0.91 | 78
25 | N=C(N)c1ccc(C(=O)NCC(=O)N2CCN(CC(=O)O)C(=O)[C@@H]2Cc2ccccc2)cc1 [compound 61] | 130 | – | 160
26 | CC(C)(C)C(=O)OCOC(=O)CN1CCN(C(=O)CNC(=O)c2ccc(C(=N)N)cc2)[C@@H](Cc2ccccc2)C1=O [compound 63] | 720 | 8.9 | 460
27 | CCC(C)[C@H]1C(=O)N(CC(=O)O)CCN1C(=O)CNC(=O)c1ccc(NC(=N)N)cc1 (stereo partly shown) [compound 65] | – | 98 | 4600
28 | N=C(N)c1ccc(C(=O)NCC(=O)N2CCN(CC(=O)O)C(=O)[C@@H]2CCC(=O)O)cc1 [compound 66] | 52 | 0.2 | 66
29 | COC(=O)CC[C@H]1C(=O)N(CC(=O)O)CCN1C(=O)CNC(=O)c1ccc(CCN(C)C)cc1 [compound 81] | – | 37 | 2300
